Source: patent publication US6916826B2, “Substituted imidazo[1,2-a]pyridine derivatives” (Hoffman-La Roche Inc., priority 2001, dated 2005)

Biological target: T1, rat mGlu 5a receptor (Rattus norvegicus, UniProt P31424)
T1 construct: expressed in transfected cells; host or cells: EBNA cells (transient transfection)
Test: [Ca2+]i FLIPR antagonist assay on mGlu 5a transfected EBNA cells against 10 μM glutamate
Assay type: cell-based
Conditions: rat mGlu 5a transiently transfected EBNA cells; against 10 μM glutamate as agonist
Method: The pharmacological activity of the compounds of the present invention was tested using the following methods: cDNA encoding rat mGlu 5a receptor was transiently transfected into EBNA cells using a procedure described by E.-J. Schlaeger and K. Christensen (Transient gene expression in mammalian cells grown in serum-free suspension culture, Cytotechnology 1999, 30, 71-83). [Ca^2+]i measurements were performed on mGlu 5a transfected EBNA cells after incubation of the cells with Fluo 3-AM (obtainable by FLUKA, 0.5 μM final concentration) for 1 hour at 37° C. followed by 4 washes with assay buffer (DMEM supplemented with Hank's salt and 20 mM HEPES. [Ca^2+]i measurements were done using a fluorometric imaging plate reader (FLIPR, Molecular Devices Corporation, La Jolla, Calif., USA). When compounds were evaluated as antagonists they were tested against 10 μM glutamate as agonist.
The inhibition (antagonist) curves were fitted with a four parameter logistic equation giving IC50, and Hill coefficient using the iterative non linear curve fitting software Origin (Microcal Software Inc., Northampton, Mass., USA).

T1 sequence (P31424 21-1171 isoform P31424-2 limits assumed): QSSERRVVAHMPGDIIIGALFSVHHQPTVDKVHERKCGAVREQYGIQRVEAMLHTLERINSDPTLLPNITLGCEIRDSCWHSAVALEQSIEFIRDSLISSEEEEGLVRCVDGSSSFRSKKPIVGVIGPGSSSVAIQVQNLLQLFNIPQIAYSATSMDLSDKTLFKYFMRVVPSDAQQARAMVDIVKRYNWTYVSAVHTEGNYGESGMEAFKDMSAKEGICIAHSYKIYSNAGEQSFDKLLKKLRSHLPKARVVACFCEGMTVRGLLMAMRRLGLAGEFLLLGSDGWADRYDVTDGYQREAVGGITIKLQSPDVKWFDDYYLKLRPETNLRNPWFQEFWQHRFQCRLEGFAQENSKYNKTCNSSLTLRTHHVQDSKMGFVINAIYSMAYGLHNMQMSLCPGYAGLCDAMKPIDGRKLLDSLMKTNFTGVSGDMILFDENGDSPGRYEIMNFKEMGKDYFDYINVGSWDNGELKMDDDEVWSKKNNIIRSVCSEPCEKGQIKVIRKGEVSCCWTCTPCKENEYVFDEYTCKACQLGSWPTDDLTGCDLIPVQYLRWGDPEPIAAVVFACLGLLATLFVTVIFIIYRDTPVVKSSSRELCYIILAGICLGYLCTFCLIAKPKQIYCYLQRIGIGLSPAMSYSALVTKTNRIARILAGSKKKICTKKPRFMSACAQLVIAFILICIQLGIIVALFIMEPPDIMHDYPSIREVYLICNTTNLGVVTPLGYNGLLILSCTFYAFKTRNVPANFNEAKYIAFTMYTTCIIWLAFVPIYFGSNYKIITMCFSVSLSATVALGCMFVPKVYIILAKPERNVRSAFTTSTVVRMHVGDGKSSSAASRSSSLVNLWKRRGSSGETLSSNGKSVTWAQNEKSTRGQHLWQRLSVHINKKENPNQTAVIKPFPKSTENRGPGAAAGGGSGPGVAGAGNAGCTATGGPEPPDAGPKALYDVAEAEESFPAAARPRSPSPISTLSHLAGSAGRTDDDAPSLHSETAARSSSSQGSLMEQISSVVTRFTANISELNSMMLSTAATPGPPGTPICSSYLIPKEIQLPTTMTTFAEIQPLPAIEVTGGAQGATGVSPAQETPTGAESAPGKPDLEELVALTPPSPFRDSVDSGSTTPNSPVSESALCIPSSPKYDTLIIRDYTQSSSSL

SMILES | IC50
Cc1ccc(-c2cn3ccccc3n2)cc1 [Example 23, 2-(4-Methyl-phenyl)-imidazo[1,2-a]pyridine] | 8770 nM
Cc1cc(-c2cn3ccccc3n2)c(C)s1 [Example 24, 2-(2,5-Dimethyl-thiophen-3-yl)-imidazo[1,2-a]pyridine] | 580 nM
c1ccc2oc(-c3cn4ccccc4n3)cc2c1 [Example 15, 2-Benzofuran-2-yl-imidazo[1,2-a]pyridine] | 1660 nM
COc1ccc(-c2cn3ccc(C)cc3n2)cc1OC [Example 2, 2-(3,4-Dimethoxy-phenyl)-7-methyl-imidazo[1,2-a]pyridine] | 1880 nM
COc1cccc(-c2cn3ccccc3n2)c1 [Example 25, 2-(3-Methoxy-phenyl)-imidazo[1,2-a]pyridine] | 1650 nM
Fc1cccc(-c2cn3ccccc3n2)c1 [Example 19, 2-(3-Fluoro-phenyl)-imidazo[1,2-a]pyridine] | 3410 nM
Clc1cccc(-c2cn3ccccc3n2)c1 [Example 13, 2-(3-Chloro-phenyl)-imidazo[1,2-a]pyridine] | 1230 nM
COc1ccn2cc(-c3ccc(OC)c(OC)c3)nc2c1 [Example 5, 2-(3,4-Dimethoxy-phenyl)-7-methoxy-imidazo[1,2-a]pyridine] | 3300 nM
O=[N+]([O-])c1cccc(-c2cn3ccccc3n2)c1 [Example 29, 2-(3-Nitro-phenyl)-imidazo[1,2-a]pyridine] | 10000 nM
COc1ccc(-c2cn3ccccc3n2)cc1OC [Example 3, 2-(3,4-Dimethoxy-phenyl)-imidazo[1,2-a]pyridine] | 6800 nM
c1ccn2cc(-c3ccc4c(c3)CCO4)nc2c1 [Example 18, 2-(2,3-Dihydro-benzofuran-5-yl)-imidazo[1,2-a]pyridine] | 2860 nM
COc1ccc(-c2cn3cc(C)ccc3n2)cc1OC [Example 26, 2-(3,4-Dimethoxy-phenyl)-6-methyl-imidazo[1,2-a]pyridine] | 8300 nM
c1ccn2cc(-c3ccc4c(c3)CCC4)nc2c1 [Example 10, 2-Indan-5-yl-imidazo[1,2-a]pyridine] | 930 nM
Cc1ccc(-c2cn3cc(C)ccc3n2)cc1 [Example 28, 6-Methyl-2-(4-methyl-phenyl)-imidazo[1,2-a]pyridine] | 10000 nM
Fc1ccc(-c2cn3ccccc3n2)cc1Br [Example 8, 2-(3-Bromo-4-fluoro-phenyl)-imidazo[1,2-a]pyridine] | 690 nM
CCc1ccn2cc(-c3ccc(C)c(C)c3)nc2c1 [Example 20, 2-(3,4-Dimethyl-phenyl)-7-ethyl-imidazo[1,2-a]pyridine] | 3640 nM
c1ccn2cc(-c3ccc4c(c3)OCCO4)nc2c1 [Example 27, 2-(2,3-Dihydro-benzo [1,4]dioxin-6-yl)-imidazo[1,2-a]pyridine] | 990 nM
Cc1ccc(-c2cn3ccccc3n2)cc1C.Cl [Example 6, 2-(3,4-Dimethyl-phenyl)-imidazo[1,2-a]pyridine hydrochloride] | 37 nM
Cc1ccn2cc(-c3ccccc3)nc2c1 [Example 22, 7-Methyl-2-phenyl-imidazo[1,2-a]pyridine] | 7500 nM
FC(F)(F)c1cccc(-c2cn3ccccc3n2)c1 [Example 17, 2-(3-Trifluoromethyl-phenyl)-imidazo[1,2-a]pyridine] | 2790 nM
Cc1cccc(-c2cn3ccccc3n2)c1 [Example 14, 2-(3-Methyl-phenyl)-imidazo[1,2-a]pyridine] | 1550 nM
Ic1cccc(-c2cn3ccccc3n2)c1 [Example 12, 2-(3-Iodo-phenyl)-imidazo[1,2-a]pyridine] | 970 nM
Cc1ccc(-c2cn3ccccc3n2)s1 [Example 21, 2-(5-Methyl-thiophen-2-yl)-imidazo[1,2-a]pyridine] | 6130 nM
c1ccc2c(-c3cn4ccccc4n3)csc2c1 [Example 16, 2-Benzo[b]thiophen-3-yl-imidazo[1,2-a]pyridine] | 2760 nM
Cc1ccc(-c2cn3ccc(Cl)cc3n2)cc1C [Example 1, 7-Chloro-2-(3,4-dimethyl-phenyl)-imidazo[1,2-a]pyridine] | 100 nM
COc1ccn2cc(-c3ccc(C)c(C)c3)nc2c1 [Example 4, 2-(3,4-Dimethyl-phenyl)-7-methoxy-imidazo[1,2-a]pyridine] | 140 nM
Cc1ccn2cc(-c3ccc(C)c(C)c3)nc2c1 [Example 7, 2-(3,4-Dimethyl-phenyl)-7-methyl-imidazo[1,2-a]pyridine] | 280 nM
COc1cc(-c2cn3ccccc3n2)ccc1OCc1ccccc1 [Example 9, 2-(4-Benzyloxy-3-methoxy-phenyl)-imidazo[1,2-a]pyridine] | 830 nM
Brc1cccc(-c2cn3ccccc3n2)c1 [Example 11, 2-(3-Bromo-phenyl)-imidazo[1,2-a]pyridine] | 950 nM

Same assay, conditions: statement in words, compared with compounds of formula I

SMILES | affinity toward the mGluR5 receptor
Cc1ccc(-c2nc3ccc(C)cn3c2CC(=O)N(C)C)cc1 [N,N,6-trimethyl-2-(4-methylphenyl)-imidazo[1,2-a]pyridine-3-acetamide, reference compound] | does not possess the affinity toward the mGluR5 receptor

Test system: central benzodiazepine receptors
Test: not given
Conditions: from cited reference (Eur. J. Pharmacol. 1986, 130(3), 257-263); cited from earlier work

SMILES | agonist properties at central benzodiazepine receptors
Cc1ccc(-c2nc3ccc(C)cn3c2CC(=O)N(C)C)cc1 [N,N,6-trimethyl-2-(4-methylphenyl)-imidazo[1,2-a]pyridine-3-acetamide, reference compound] | possesses agonist properties at central benzodiazepine receptors

Biological target: central benzodiazepine receptors
Test: Inhibition of binding of tritiated flumazenil to benzodiazepine receptors in rat cortex
Conditions: [3H]flumazenil, Cheng & Prusoff
Method: The affinity of compounds of formula I to the central benzodiazepine receptors in vitro was also tested using standard methods as for example described in Nature 1981, 294, 763-765 and J. Neurochemistry 1981, 37, 714-722. According to these methods, the inhibition of the binding of tritiated flumazenil to the specific benzodiazepine receptors in the cortex of rats by the respective test substances is determined and the inhibition dissociation constant (Ki) of each test compound is determined according to the method of Cheng & Prusoff (1973).

SMILES | pKi (negative logarithm of the Ki)
Cc1ccc(-c2cn3ccccc3n2)cc1C.Cl [Example 6, 2-(3,4-Dimethyl-phenyl)-imidazo[1,2-a]pyridine hydrochloride] | 5.2

Test system: not given
Test: not given
Conditions: not given

SMILES | melting point
COc1ccc(-c2cn3ccc(C)cc3n2)cc1OC [Example 2, 2-(3,4-Dimethoxy-phenyl)-7-methyl-imidazo[1,2-a]pyridine] | 163 °C
COc1ccn2cc(-c3ccc(OC)c(OC)c3)nc2c1 [Example 5, 2-(3,4-Dimethoxy-phenyl)-7-methoxy-imidazo[1,2-a]pyridine] | 142 °C
Cc1ccc(-c2cn3ccc(Cl)cc3n2)cc1C [Example 1, 7-Chloro-2-(3,4-dimethyl-phenyl)-imidazo[1,2-a]pyridine] | 144 °C
COc1ccn2cc(-c3ccc(C)c(C)c3)nc2c1 [Example 4, 2-(3,4-Dimethyl-phenyl)-7-methoxy-imidazo[1,2-a]pyridine] | 175 °C
